In ChEMBL document CHEMBL1201862, “PubChem BioAssay data set” (2004):
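Exposure lasted 48 hours, with cells grown in 96-well plates and compounds tested at five concentrations. Abbreviation: GI50, concentration required for 50% inhibition of growth.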 The source made the active and inactive calls. Rule as the data show it: active = GI50 up to about 1.1 µM and inactive = higher.

What was measured:
Experiment in all cases: NCI-60 cell line screen, 48 h
PC-3 = test system: PC-3
A549 = test system: A549
HCC 2998 = test system: HCC 2998
MDA-MB-231 = test system: MDA-MB-231
T47D = test system: T47D
HT-29 = test system: HT-29
Malme-3M = test system: Malme-3M
HOP-62 = test system: HOP-62
786-0 = test system: 786-0
MCF7 = test system: MCF7
BT-549 = test system: BT-549
SK-MEL-5 = test system: SK-MEL-5
MDA-MB-435 = test system: MDA-MB-435
SK-MEL-2 = test system: SK-MEL-2
DU-145 = test system: DU-145
ACHN = test system: ACHN
DMS-114 = test system: DMS-114
M19-MEL = test system: M19-MEL
HOP-18 = test system: HOP-18
XF498 = test system: XF498

Measured: GI50

C=CCc1cccc2cc(C(=O)Nc3ccc(C)cc3)c(=N)oc12
inactive: PC-3 > 100 µM | A549 > 100 µM | HCC 2998 > 100 µM | MDA-MB-231 > 100 µM | T47D > 100 µM | HT-29 > 100 µM | Malme-3M > 100 µM | HOP-62 > 100 µM | 786-0 > 100 µM | MCF7 > 100 µM | BT-549 > 100 µM | SK-MEL-5 > 100 µM | MDA-MB-435 > 100 µM | SK-MEL-2 45.2 µM | DU-145 > 100 µM | ACHN > 100 µM

COc1ccc(/C(Cl)=C(\C=O)c2ccc(F)cc2)cc1
inactive: HT-29 7.41 µM | DMS-114 7.55 µM | Malme-3M 13.7 µM | HOP-62 9.59 µM | SK-MEL-5 9.06 µM | M19-MEL 15 µM | SK-MEL-2 8.83 µM | HOP-18 6.58 µM | ACHN 6.14 µM

CCCCCCSc1nc(N)nc2nc[nH]c12
inactive: A549 30 µM | HCC 2998 > 55.5 µM | HT-29 34.4 µM | XF498 32.5 µM | Malme-3M 35.7 µM | HOP-62 34.5 µM | MCF7 30.5 µM | SK-MEL-5 20.3 µM | M19-MEL 47.1 µM | SK-MEL-2 18.4 µM

CC(=O)OCC1OC(Nc2ncc(-c3ccc(C)cc3)s2)C(OC(C)=O)C(OC(C)=O)C1OC(C)=O (stereo unspecified)
inactive: A549 44.5 µM | HCC 2998 23.3 µM | HT-29 29.2 µM | DMS-114 35.6 µM | Malme-3M 61.5 µM | HOP-62 52 µM | MCF7 13.3 µM | SK-MEL-5 33.3 µM | M19-MEL 18.8 µM | SK-MEL-2 34 µM | HOP-18 35.8 µM

COc1ccc2c(c1)c1c(n2CCN(C)C)-c2ccccc2CC1
inactive: PC-3 12.6 µM | A549 15.6 µM | HCC 2998 18.2 µM | MDA-MB-231 13.6 µM | T47D 14.5 µM | HT-29 7.78 µM | Malme-3M 20.3 µM | HOP-62 16.4 µM | 786-0 16.1 µM | MCF7 18.3 µM | BT-549 16.9 µM | SK-MEL-5 14.9 µM | MDA-MB-435 16.5 µM | SK-MEL-2 16.1 µM | DU-145 15.9 µM | ACHN 16.4 µM

C[Si](C)(C)/C(I)=C/CO
inactive: A549 24.1 µM | HT-29 20.5 µM | XF498 13.6 µM | Malme-3M 27.1 µM | 786-0 37.3 µM | SK-MEL-5 19 µM | M19-MEL 20.8 µM | SK-MEL-2 19.7 µM | HOP-18 32 µM | ACHN 17 µM

C[n+]1[se]c2ccccc2c1Cl
inactive: A549 32 µM | HCC 2998 > 47.8 µM | HT-29 28.4 µM | XF498 37.2 µM | DMS-114 35.3 µM | Malme-3M 23.3 µM | HOP-62 > 40.7 µM | 786-0 > 45 µM | SK-MEL-5 16.6 µM | M19-MEL 10.3 µM | SK-MEL-2 11.7 µM | HOP-18 20.7 µM | ACHN > 48.8 µM

O=S1(=O)CC#CC[C@@H](CO)[C@@H](CO)CC#CC1
inactive: A549 > 100 µM | HCC 2998 > 100 µM | HT-29 > 100 µM | XF498 > 100 µM | Malme-3M 21.7 µM | HOP-62 > 100 µM | 786-0 > 100 µM | SK-MEL-5 > 100 µM | M19-MEL 47.1 µM | SK-MEL-2 > 100 µM | ACHN > 100 µM
